From patent publication US20100075965A1, “PI3 KINASE INHIBITORS AND METHODS OF THEIR USE” (Novartis AG, priority 2006, published 2010) come the findings set out here.

Assay [1] deals with A2780 cells. Kind of assay: Viability assay in A2780 (Cell Titer Glo). Type of assay: cell-based, human. Particulars: Homo sapiens, read-out: A2780 Cell prolif. EC50. In outline: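 EC50 values come from Cell Titer Glo luminescence after 72 hrs of compound exposure at 37° C, run in duplicate. A2780 cells were plated at 1,000 per well in DMEM with 10% FBS and dosed with 3-fold serial dilutions.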
For orientation: Cellular ATP, detected with luciferase, serves as a proxy for viable cell number.

For assay [2], the system named is pSer473-Akt in A2780 cells. Kind of assay: pSer473 Akt assay to monitor PI3K pathway in A2780 cells (MSD). Type of assay: cell-based. The conditions noted are these: Homo sapiens. How it is done:
In this method, an assay for measuring the PI3K-mediated pSer^473-Akt status after treatment with representative inhibitor compounds of the preferred embodiments is described.
A2780 cells were cultured in DMEM supplemented with 10% FBS, L-glutamine, sodium pyruvate, and antibiotics. Cells were plated in the same medium at a density of 15,000 cells per well into 96 well tissue culture plates, with outside wells vacant, and allowed to adhere overnight.
Test compounds supplied in DMSO were diluted further into DMSO at 500 times the desired final concentrations before dilution into culture media to 2 times the final concentrations. Equal volumes of 2× compounds in media were added to the cells in 96 well plates and incubated at 37° C. for one hour. The media and compounds were then removed, the plates chilled and cells lysed in a lysis buffer (150 mM NaCl, 20 mM Tris pH 7.5, 1 mM EDTA, 1 mM EGTA, 1% Triton X-100) supplemented with phosphatase and protease inhibitors. After thorough mixing, lysates were transferred to both pSer473Akt and total Akt assay plates from Meso Scale Discovery (MSD), and incubated overnight with shaking at 4° C. The plates were washed with 1×MSD wash buffer and the captured analytes detected with secondary antibodies. After incubation with the secondary antibody at room temperature for 1-2 hours, the plates were washed again and 1.5× concentration of Read Buffer T (MSD) was added to the wells.
The assays were read on a SECTOR Imager 6000 instrument (Meso Scale Discovery). Ratios of the signal from pSer473Akt and total Akt assays were used to correct for any variability and the percent inhibition of pSer473Akt from the total signal seen in cells treated with compound versus DMSO alone was calculated and used to determine EC50 values for each compound as shown in Tables 1 and 2 in the column labeled “A2780 pAKT473 EC50”.

The target of assay [3] is PI3 K Alpha (Homo sapiens, UniProt P42336). Kind of assay: PI3 kinase phosphorylation assays (homogenous solution phase, one step solid phase, ATP depletion/KinaseGlo). In kind it is biochemical. Particulars: read-out: PI3K Alpha IC50. A general note: Kinase-Glo measures the ATP left after a reaction by luminescence.
PI3 K Alpha, sequence (P42336 whole entry): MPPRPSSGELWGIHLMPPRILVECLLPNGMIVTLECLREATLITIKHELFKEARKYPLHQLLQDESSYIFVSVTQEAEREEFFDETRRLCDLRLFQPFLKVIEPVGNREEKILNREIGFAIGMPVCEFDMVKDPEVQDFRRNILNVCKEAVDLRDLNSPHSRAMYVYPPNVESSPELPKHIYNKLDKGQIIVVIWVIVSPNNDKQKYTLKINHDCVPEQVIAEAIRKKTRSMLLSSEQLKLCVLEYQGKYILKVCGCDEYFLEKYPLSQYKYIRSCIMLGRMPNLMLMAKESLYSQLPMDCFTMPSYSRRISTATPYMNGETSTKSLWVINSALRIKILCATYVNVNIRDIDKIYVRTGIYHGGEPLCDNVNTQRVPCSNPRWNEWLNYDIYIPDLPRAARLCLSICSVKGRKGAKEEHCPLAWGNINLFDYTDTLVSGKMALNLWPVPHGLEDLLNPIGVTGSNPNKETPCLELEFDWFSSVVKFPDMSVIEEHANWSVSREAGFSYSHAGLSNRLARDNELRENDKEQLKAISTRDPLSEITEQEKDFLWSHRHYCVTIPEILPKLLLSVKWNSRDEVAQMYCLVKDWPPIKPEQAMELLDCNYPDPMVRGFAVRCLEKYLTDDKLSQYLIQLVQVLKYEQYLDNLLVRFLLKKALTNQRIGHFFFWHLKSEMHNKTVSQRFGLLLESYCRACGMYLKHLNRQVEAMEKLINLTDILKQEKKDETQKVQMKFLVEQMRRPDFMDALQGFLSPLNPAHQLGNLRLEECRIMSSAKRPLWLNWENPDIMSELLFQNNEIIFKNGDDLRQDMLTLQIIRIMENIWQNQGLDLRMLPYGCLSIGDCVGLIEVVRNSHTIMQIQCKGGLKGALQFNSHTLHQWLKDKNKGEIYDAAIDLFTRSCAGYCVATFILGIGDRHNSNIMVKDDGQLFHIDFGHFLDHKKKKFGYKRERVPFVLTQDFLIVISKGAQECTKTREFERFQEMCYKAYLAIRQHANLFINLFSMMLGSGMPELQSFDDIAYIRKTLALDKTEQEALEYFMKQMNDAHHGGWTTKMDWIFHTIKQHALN
PI3 K Alpha, sequence (P27986 whole entry partner): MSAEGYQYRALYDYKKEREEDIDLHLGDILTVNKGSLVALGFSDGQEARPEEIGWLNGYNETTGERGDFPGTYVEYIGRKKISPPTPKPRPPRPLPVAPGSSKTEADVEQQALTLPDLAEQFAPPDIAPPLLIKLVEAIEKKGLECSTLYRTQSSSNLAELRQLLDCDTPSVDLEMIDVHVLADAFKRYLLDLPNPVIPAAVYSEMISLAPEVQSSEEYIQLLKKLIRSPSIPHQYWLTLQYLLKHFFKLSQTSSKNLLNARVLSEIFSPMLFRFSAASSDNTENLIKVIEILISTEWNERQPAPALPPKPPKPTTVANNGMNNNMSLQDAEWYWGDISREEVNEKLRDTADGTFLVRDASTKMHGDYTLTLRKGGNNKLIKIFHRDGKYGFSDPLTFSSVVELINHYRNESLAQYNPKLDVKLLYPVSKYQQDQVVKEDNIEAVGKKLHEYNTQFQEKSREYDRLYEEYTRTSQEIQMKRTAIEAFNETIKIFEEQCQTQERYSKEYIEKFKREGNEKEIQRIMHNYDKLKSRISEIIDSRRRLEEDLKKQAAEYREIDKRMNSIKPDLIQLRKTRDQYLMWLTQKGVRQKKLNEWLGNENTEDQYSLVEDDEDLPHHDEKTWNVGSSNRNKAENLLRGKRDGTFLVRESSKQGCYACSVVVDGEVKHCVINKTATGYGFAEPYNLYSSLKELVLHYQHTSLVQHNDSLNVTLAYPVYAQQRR
[4] abbreviates: A2780 cells, read-out: A2780 pAKT 473 EC50.

Molecules are shown by their SMILES. Where two headings read alike, the source gives them in different places. Where only a bound is given, the exact number is not on record here.

With `COc1cc(-c2ccc3nc(NC(C)=O)sc3c2)cnc1N` [Example 2-9, N-[6-(6-Amino-5-methoxy-pyridin-3-yl)-benzothiazol-2-yl]-acetamide], the EC50 – broadly, the concentration at which the effect is half-maximal – in assay [1] (A2780, 72 h) was below 1 µM; in assay [2] (A2780, 1 h, read-out: A2780 pAKT473 EC50) it was below 1000 nM. In the case of `COCCOc1nc(-c2ccc3nc(NC(C)=O)cn3c2)cnc1N` [Example 61, N-(6-(5-amino-6-(2-methoxyethoxy)pyrazin-2-yl)imidazo[1,2-a]pyridin-2-yl)acetamide], the EC50 in assay [2] (setting [4]) is below 1000 nM. As for `CC(=O)Nc1cn2cc(-c3cnc(N)c(O[C@H](C)C(F)(F)F)n3)ccc2n1` [Example 70, (R)-N-(6-(5-amino-6-(1,1,1-trifluoropropan-2-yloxy)pyrazin-2-a]pyridin-2-yl)acetamide], the concentration for a half-maximal effect (EC50) in assay [2] (setting [4]) was below 1000 nM. With `COc1cc(-c2ccc3nc(NC(C)=O)cn3n2)cnc1N` [Example 21, N-[6-(6-Amino-5-methoxy-pyridin-3-yl)-imidazo[1,2-b]pyridazin-2-yl]-acetamide], in assay [2] (setting [4]), the EC50 was below 1000 nM.

For `Nc1ccc(-c2ccc3nc(NC(=O)C(F)(F)F)cn3c2)cn1` [Example 1, N-[6-(6-Amino-pyridin-3-yl)-imidazo[1,2-a]pyridin-2-yl]-2,2,2-trifluoro-acetamide], the values for the EC50 in assay [1] (A2780 cells) and in assay [2] (setting [4]) were below 25 µM and below 10000 nM, respectively. In the case of `CC(=O)Nc1cn2cc(-c3cnc(N)c(O[C@@H](C)C(F)(F)F)n3)ccc2n1` [Example 55, (S)-N-(6-(5-amino-6-(1,1,1-trifluoropropan-2-yloxy)pyrazin-2-yl)imidazo[1,2-a]pyridin-2-yl)acetamide], in assay [2] (setting [4]), the EC50 is below 1000 nM. Turning to `CC(=O)Nc1cn2cc(-c3cnc(N)c(C(F)(F)F)c3)ccc2n1` [Example 5, N-[6-(6-Amino-5-trifluoromethyl-pyridin-3-yl)-imidazo[1,2-a]pyridin-2-yl]-acetamide], the EC50 in assay [2] (setting [4]) is below 1000 nM.

`Nc1ccc(-c2ccc3nc(NC(=O)CCCN4CCCCC4)sc3c2)cn1` [Example 2-5, N-[6-(6-Amino-pyridin-3-yl)-benzothiazol-2-yl]-4-piperidin-1-yl-butyramide]: the EC50 was below 10 µM in assay [1] (A2780 cells, 72 hrs) and below 1000 nM in assay [2] (1 h, A2780 cells, one hour incubation, read-out: A2780 pAKT473 EC50). For the compound `COc1nc(-c2ccc3nc(NC(C)=O)cn3c2)cnc1N` [Example 101, N-(6-(5-amino-6-methoxypyrazin-2-yl)imidazo[1,2-a]pyridin-2-yl)acetamide], the EC50 in assay [2] (setting [4]) is below 1000 nM. As to `CCOc1nc(-c2ccc3nc(NC(C)=O)cn3c2)cnc1N` [Example 62, N-(6-(5-amino-6-ethoxypyrazin-2-yl)imidazo[1,2-a]pyridin-2-yl)acetamide], the EC50 in assay [2] (setting [4]) was below 1000 nM.

Turning to `CCOc1cc(-c2ccc3nc(NC(C)=O)cn3n2)cnc1N` [Example 119, N-(6-(6-amino-5-ethoxypyridin-3-yl)imidazo[1,2-b]pyridazin-2-yl)acetamide], the EC50 in assay [2] (setting [4]) is below 1000 nM. As to `COc1cc(-c2ccc3nc(NC(C)=O)cn3c2)cnc1N` [Example 6, N-[6-(6-Amino-5-methoxy-pyridin-3-yl)-imidazo[1,2-a]pyridin-2-yl]-acetamide], the EC50 in assay [2] (setting [4]) is below 1000 nM.

For `COCCOc1cc(-c2ccc3nc(NC(C)=O)cn3n2)cnc1N` [Example 106, N-(6-(6-amino-5-(2-methoxyethoxy)pyridin-3-yl)imidazo[1,2-b]pyridazin-2-yl)acetamide], the EC50 in assay [2] (setting [4]) was below 1000 nM. Turning to `CCOc1cc(-c2ccc3nc(NC(C)=O)cn3c2)cnc1N` [Example 111, N-(6-(6-amino-5-ethoxypyridin-3-yl)imidazo[1,2-a]pyridin-2-yl)acetamide], in assay [2] (setting [4]), the EC50 is below 1000 nM. For `CC(=O)Nc1cn2cc(-c3cnc(N)c(OCC(F)(F)F)n3)ccc2n1` [Example 56, N-(6-(5-amino-6-(2,2,2-trifluoroethoxy)pyrazin-2-yl)imidazo[1,2-a]pyridin-2-yl)acetamide], the EC50 in assay [2] (setting [4]) is below 1000 nM. In the case of `Nc1ncc(-c2ccc3nc(NC(=O)N4CCCC4c4ccccn4)cn3c2)cc1C(F)(F)F` (stereo not shown) [Example 175, N-(6-(6-amino-5-(trifluoromethyl)pyridin-3-yl)imidazo[1,2-a]pyridin-2-yl)-2-(pyridin-2-yl)pyrrolidine-1-carboxamide], the IC50 (commonly the concentration that inhibits the measured activity by half) in assay [3] was below 1000 nM. In assay [1] (A2780 cells), the EC50 is below 25 µM.

For the compound `CCN1CCC(OCC(=O)Nc2cn3cc(-c4cnc(N)c(C(F)(F)F)c4)ccc3n2)CC1` [Example 221, N-(6-(6-amino-5-(trifluoromethyl)yl)imidazo[1,2-a]pyridin-2-yl)-2-(1-ethylpiperidin-4-yloxy)acetamide], the IC50 in assay [3] is below 1000 nM. Besides, in assay [1] (A2780 cells), the EC50 is below 10 µM. In the case of `Nc1ncc(-c2ccc3nc(NC(=O)N4CCC(C(=O)O)C4)cn3c2)cc1C(F)(F)F` (stereo not shown) [Example 151], in assay [3], the IC50 is below 1000 nM. The EC50 in assay [1] (A2780 cells) is below 25 µM.

As for `CCCc1c(NC(C)=O)nc2ccc(-c3cnc(N)c(C(F)(F)F)c3)cn12` [Example 31, N-[6-(6-Amino-5-trifluoromethyl-pyridin-3-yl)-3-propyl-imidazo[1,2-a]pyridin-2-yl]-acetamide], the half-maximal inhibitory concentration (IC50) in assay [3] was below 1000 nM. Also, in assay [1] (A2780 cells), the EC50 is below 25 µM. Regarding `CC(=O)Nc1cn2cc(-c3cnc(N)c(OC(C)C)n3)ccc2n1` [Example 54, N-(6-(5-amino-6-isopropoxy-pyrazin-2-yl)imidazo[1,2-a]pyridin-2-yl)acetamide], the EC50 in assay [2] (setting [4]) is below 1000 nM. On to `CC(=O)Nc1cn2cc(-c3cnc(N)c(CN4CCCC4)c3)ccc2n1` [Example 173, N-(6-(6-amino-5-(pyrrolidin-1-ylmethyl)pyridin-3-yl)imidazo[1,2-a]pyridin-2-yl)acetamide], for which the 50% inhibitory concentration (IC50) in assay [3] was below 1000 nM. Moreover, the EC50 in assay [1] (A2780 cells) is below 25 µM.

As to `Nc1ncc(-c2ccc3nc(NC(=O)COC4CCNCC4)cn3c2)cc1C(F)(F)F` [Example 200, N-(6-(6-amino-5-(trifluoromethyl)pyridin-3-yl)imidazo[1,2-a]pyridin-2-yl)-2-(piperidin-4-yloxy)acetamide], the IC50 in assay [3] was below 1000 nM. Besides, the EC50 in assay [1] (A2780 cells) was below 10 µM. Consider `CC(C)(C)OC(=O)N1CCC[C@H]1C(=O)Nc1cn2nc(-c3cnc(N)c(C(F)(F)F)c3)ccc2n1` [Example 166, (S)-tert-butyl 2-(6-(6-amino-5-(trifluoromethyl)pyridin-3-yl)imidazo[1,2-b]pyridazin-2-ylcarbamoyl) pyrrolidine-1-carboxylate], for which the IC50 in assay [3] was below 1000 nM. The EC50 in assay [1] (A2780 cells) was below 25 µM. For the compound `CC(=O)Nc1cn2cc(-c3cnc(N)c(-c4ccc(F)cc4)c3)ccc2n1` [Example 183, N-(6-(6-amino-5-(4-fluorophenyl)pyridin-3-yl)imidazo[1,2-a]pyridin-2-yl)acetamide], the IC50 in assay [3] was below 1000 nM. For the same compound, in assay [1] (A2780 cells), the EC50 was below 25 µM. As to `CN(CC(=O)Nc1cn2nc(-c3cnc(N)c(C(F)(F)F)c3)ccc2n1)C(=O)OC(C)(C)C` [Example 237, tert-butyl 2-(6-(6-amino-5-(trifluoromethyl)pyridin-3-yl)imidazo[1,2-b]pyridazin-2-ylamino)-2-oxoethyl(methyl) carbamate], in assay [3], the IC50 is below 1000 nM. Further, the EC50 in assay [1] (A2780 cells) is below 10 µM.

As to `CC(=O)Nc1cn2nc(-c3cnc(N)c(C(F)(F)F)c3)ccc2n1` [Example 16, N-[6-(6-Amino-5-trifluoromethyl-pyridin-3-yl)-imidazo[1,2-b]pyridazin-2-yl]-acetamide], the EC50 in assay [2] (setting [4]) is below 1000 nM.

Take `CC(=O)Nc1cn2nc(-c3cnc(N)c(C(=O)NCCN)c3)ccc2n1` [Example 139, 5-(2-acetamido-imidazo[1,2-b]pyridazin-6-yl)-2-amino-N-(2-aminoethyl) nicotinamide]: the IC50 in assay [3] is below 1000 nM. Moreover, the EC50 in assay [1] (A2780 cells) is below 25 µM.

As to `CC(=O)Nc1cn2cc(-c3cnc(N)c(C)n3)ccc2n1` [Example 226, N-(6-(5-amino-6-methylpyrazin-2-yl)imidazo[1,2-a]pyridin-2-yl)acetamide], in assay [3], the IC50 is below 1000 nM. Also, the EC50 in assay [1] (A2780 cells) was below 10 µM. In the case of `C[C@H](N)C(=O)Nc1cn2nc(-c3cnc(N)c(C(F)(F)F)c3)ccc2n1` [Example 239, (S)-2-amino-N-(6-(6-amino-5-(trifluoromethyl)pyridin-3-yl)imidazo[1,2-b]pyridazin-2-yl)propanamide], in assay [3], the IC50 was below 1000 nM. For the same compound, the EC50 in assay [1] (A2780 cells) is below 10 µM. For the compound `CC(C)(C)OC(=O)NCC(=O)Nc1cn2cc(-c3cnc(N)c(C(F)(F)F)c3)ccc2n1` [Example 203, tert-butyl 2-(6-(6-amino-5-(trifluoromethyl)pyridin-3-yl)imidazo[1,2-a]pyridin-2-ylamino)-2-oxoethylcarbamate], the IC50 in assay [3] is below 1000 nM. For the same compound, the EC50 in assay [1] (A2780 cells) is below 10 µM.
